Row | Compound | melting point
1 | CCc1ccc2nc(N3C(=O)C(O)=C(C(=O)c4ccc(C)o4)C3c3ccccc3)sc2c1 (stereo not drawn) [Compound 130] | 204 to 206 °C
2 | CCc1ccc2nc(N3C(=O)C(O)=C(C(=O)c4ccc(C)o4)C3c3ccc(F)cc3)sc2c1 (stereo not drawn) [Compound 131] | 222 to 225 °C
3 | CCc1ccc2nc(N3C(=O)C(O)=C(C(=O)c4ccc(C)o4)C3c3ccc(OC)cc3)sc2c1 (stereo not drawn) [Compound 132] | 192 to 194 °C
4 | CCc1ccc2nc(N3C(=O)C(O)=C(C(=O)c4ccc(C)o4)C3c3ccc(Cl)cc3)sc2c1 (stereo not drawn) [Compound 133] | 236 to 238 °C
5 | CCc1ccc2nc(N3C(=O)C(O)=C(C(=O)c4ccc(C)o4)C3c3ccc(Cl)c(Cl)c3)sc2c1 (stereo not drawn) [Compound 134] | 197 to 201 °C
6 | CCc1ccc2nc(N3C(=O)C(O)=C(C(=O)c4ccc(C)o4)C3c3ccc(C(C)C)cc3)sc2c1 (stereo not drawn) [Compound 135] | 220 to 222 °C
7 | CCc1ccc2nc(N3C(=O)C(O)=C(C(=O)c4ccc(C)o4)C3c3cccc(Cl)c3)sc2c1 (stereo not drawn) [Compound 136] | 174 to 177 °C
8 | CCc1ccc2nc(N3C(=O)C(O)=C(C(=O)c4ccc(C)o4)C3c3ccc(C(F)(F)F)cc3)sc2c1 (stereo not drawn) [Compound 137] | 138 to 140 °C
9 | CCc1ccc2nc(N3C(=O)C(O)=C(C(=O)c4ccc(C)o4)C3c3ccccc3F)sc2c1 (stereo not drawn) [Compound 138] | 165 to 169 °C
10 | Cc1ccc(C(=O)C2=C(O)C(=O)N(c3nc4ccc(Cl)cc4s3)C2c2cccc([N+](=O)[O-])c2)o1 (stereo not drawn) [Compound 139] | > 300 °C
11 | COc1ccc2nc(N3C(=O)C(O)=C(C(=O)c4ccc(C)o4)C3c3ccccc3F)sc2c1 (stereo not drawn) [Compound 151] | 268 to 269 °C
12 | Cc1ccc(C(=O)C2=C(O)C(=O)N(c3nc4ccc([N+](=O)[O-])cc4s3)C2c2ccccc2F)o1 (stereo not drawn) [Compound 152] | 255 to 257 °C
13 | COc1ccc2nc(N3C(=O)C(O)=C(C(=O)c4ccc(C)o4)C3c3ccco3)sc2c1 (stereo not drawn) [Compound 153] | 240 to 242 °C
14 | COC(=O)c1cccc(C2C(C(=O)c3ccc(C)o3)=C(O)C(=O)N2c2nc3ccc(OC)cc3s2)c1 (stereo not drawn) [Compound 154] | 250 to 252 °C
15 | COc1ccc2nc(N3C(=O)C(O)=C(C(=O)c4ccc(C)o4)C3c3cccc(O)c3)sc2c1 (stereo not drawn) [Compound 155] | 263 to 264 °C
16 | COc1ccc2nc(N3C(=O)C(O)=C(C(=O)c4ccc(C)o4)C3c3ccc(OC)c(O)c3)sc2c1 (stereo not drawn) [Compound 156] | 241 to 242 °C
17 | COc1ccc2nc(N3C(=O)C(O)=C(C(=O)c4ccc(C)o4)C3c3ccccn3)sc2c1 (stereo not drawn) [Compound 157] | 240 to 241 °C
18 | COc1ccc2nc(N3C(=O)C(O)=C(C(=O)c4ccc(C)o4)C3c3cccnc3)sc2c1 (stereo not drawn) [Compound 158] | 291 to 292 °C
19 | CC(=O)c1sc(N2C(=O)C(O)=C(C(=O)c3ccc(C)o3)C2c2ccccc2F)nc1C (stereo not drawn) [Compound 159] | 244 to 245 °C
20 | Cc1ccc(C(=O)C2=C(O)C(=O)N(c3nc4cc(Cl)ccc4o3)C2c2ccccc2F)o1 (stereo not drawn) [Compound 160] | 244 to 245 °C

Now from value to compound:

Row | melting point | Compound
21 | 251 to 252 °C | Cc1ccc(C(=O)C2=C(O)C(=O)N(c3ncc(C)s3)C2c2ccccc2F)o1 (stereo not drawn) [Compound 161]
22 | > 350 °C | Cc1ccc(C(=O)C2=C(O)C(=O)N(c3nc4c(O)ncnc4[nH]3)C2c2ccccc2F)o1 (stereo not drawn) [Compound 162]
23 | 253 to 254 °C | Cc1ccc(C(=O)C2=C(O)C(=O)N(c3nc4ccccc4s3)C2c2ccccc2F)o1 (stereo not drawn) [Compound 163]
24 | 233 to 234 °C | Cc1ccc(C(=O)C2=C(O)C(=O)N(Cc3nn[nH]n3)C2)o1 [Compound 178]
25 | 208 to 209 °C | Cc1ccc(C(=O)C2=C(O)C(=O)N(c3nc4ccc(S(C)(=O)=O)cc4s3)C2C2CCCCC2)o1 (stereo not drawn) [Compound 179]
26 | 199 to 200 °C | Cc1ccc(C(=O)C2=C(O)C(=O)N(c3nc4ccc(S(C)(=O)=O)cc4s3)C2C2CCOC2)o1 (stereo not drawn) [Compound 180]
27 | 171 to 173 °C | CCCCCC1C(C(=O)c2ccc(C)o2)=C(O)C(=O)N1c1nc2ccc(S(C)(=O)=O)cc2s1 (stereo not drawn) [Compound 181]
28 | 247 to 248 °C | CCOc1ccc2nc(N3C(=O)C(O)=C(C(=O)c4ccc(C)o4)C3c3ccccc3)sc2c1 (stereo not drawn) [Compound 182]
29 | 251 to 252 °C | CCOc1ccc2nc(N3C(=O)C(O)=C(C(=O)c4ccc(C)o4)C3c3ccccc3F)sc2c1 (stereo not drawn) [Compound 183]
30 | 256 to 257 °C | CCOc1ccc2nc(N3C(=O)C(O)=C(C(=O)c4ccc(C)o4)C3c3cccc([N+](=O)[O-])c3)sc2c1 (stereo not drawn) [Compound 184]
31 | 166 to 167 °C | CCOc1ccc2nc(N3C(=O)C(O)=C(C(=O)c4ccc(C)o4)C3C3CCCCC3)sc2c1 (stereo not drawn) [Compound 185]
32 | 214 to 215 °C | CCOc1ccc2nc(N3C(=O)C(O)=C(C(=O)c4ccc(C)o4)C3c3cccc(OCc4ccccc4)c3)sc2c1 (stereo not drawn) [Compound 186]
33 | 191 to 192 °C | CCCCOc1ccc(C2C(C(=O)c3ccc(C)o3)=C(O)C(=O)N2c2nc3ccc(OCC)cc3s2)cc1 (stereo not drawn) [Compound 187]
34 | 249 to 250 °C | Cc1ccc(C(=O)C2=C(O)C(=O)N(c3ncccn3)C2c2ccccc2F)o1 (stereo not drawn) [Compound 188]
35 | 235 to 236 °C | Cc1ccc(C(=O)C2=C(O)C(=O)N(c3ccncn3)C2c2ccccc2F)o1 (stereo not drawn) [Compound 189]
36 | 185 to 186 °C | CCOc1ccc2nc(N3C(=O)C(O)=C(C(=O)c4ccc(C)o4)C3C3CCOC3)sc2c1 (stereo not drawn) [Compound 190]
37 | 106 to 109 °C | Cc1ccc(C(=O)C2=C(O)C(=O)N(c3ncnc4c3ncn4C3OC(CO)C(O)C3O)C2c2ccccc2F)o1 (stereo not drawn) [Compound 217]
38 | 256 to 258 °C | Cc1ccc(C(=O)C2=C(O)C(=O)N(c3ncnc4[nH]ncc34)C2c2ccccc2F)o1 (stereo not drawn) [Compound 218]
39 | 170 to 173 °C | Cc1ccc(C(=O)C2=C(O)C(=O)N(c3ncnc4[nH]cnc34)C2c2ccccc2F)o1 (stereo not drawn) [Compound 219]
40 | 226 to 227 °C | CCOc1ccc2nc(N3C(=O)C(O)=C(C(=O)c4ccc(C)o4)C3c3cccc(C#N)c3)sc2c1 (stereo not drawn) [Compound 220]
41 | 259 to 260 °C | CCOc1ccc2nc(N3C(=O)C(O)=C(C(=O)c4ccc(C)o4)C3c3ccc(O)c(O)c3)sc2c1 (stereo not drawn) [Compound 221]
42 | 248 to 249 °C | CCOc1ccc2nc(N3C(=O)C(O)=C(C(=O)c4ccc(C)o4)C3c3cccc(F)c3)sc2c1 (stereo not drawn) [Compound 222]
43 | 254 to 255 °C | CCOc1ccc2nc(N3C(=O)C(O)=C(C(=O)c4ccc(C)o4)C3c3cccc(O)c3)sc2c1 (stereo not drawn) [Compound 223]
44 | 266 to 267 °C | Cc1ccc(C(=O)C2=C(O)C(=O)N(c3ncnc4[nH]cnc34)C2c2cccc([N+](=O)[O-])c2)o1 (stereo not drawn) [Compound 224]
45 | 222 to 223 °C | Cc1ccc(C(=O)C2=C(O)C(=O)N(c3ncnc4[nH]ncc34)C2c2cccc([N+](=O)[O-])c2)o1 (stereo not drawn) [Compound 225]
46 | 227 to 229 °C | Cc1ccc(C(=O)C2=C(O)C(=O)N(c3nc4cccnc4s3)C2c2ccccc2F)o1 (stereo not drawn) [Compound 245]
47 | 251 to 252 °C | Cc1ccc(C(=O)C2=C(O)C(=O)N(c3nc4cccnc4s3)C2c2cccc(C#N)c2)o1 (stereo not drawn) [Compound 246]
48 | 248 to 249 °C | Cc1ccc(C(=O)C2=C(O)C(=O)N(c3nc4cccnc4s3)C2c2ccc3c(c2)OCO3)o1 (stereo not drawn) [Compound 247]
